Measured values published in patent publication US8012973B2, “Compounds for the treatment of auricular fibrillation” (Proyecto de Biomedicina Cima S.L., priority 2005, dated 2011).
Entries after “also recorded” stand apart in the source; their conditions may differ.

Legend:
[1] = test system: isolated human atrial myocytes; assay: Spontaneous SR calcium release (calcium sparks and waves), confocal calcium imaging of fluo-3 loaded cells; format: cell-based; settings: for basal calcium wave frequency measured by confocal microscopy: 50 nM, cells from atrial fibrillation patients with elevated basal SR calcium release, n=6, both antagonists pooled (FIG. 3B left)
Protocol: (§1) Myocytes were isolated from human atrial tissue samples as previously described (cf. L. Hove-Madsen et al., “Atrial fibrillation is associated with increased spontaneous calcium release from the sarcoplasmic reticulum in human atrial myocytes”, Circulation 2004, vol. 110, pp. 1358-63). Briefly, the samples were rinsed, cut into small pieces in a calcium free solution containing 30 mM butanedione monoxime (BDM), and incubated at 35° C. in a Ca^2+ free solution containing 0.5 mg/ml collagenase (Worthington type 2, 318 u/mg) and 0.5 mg/ml proteinase (Sigma type XXIV, 11 u/mg solid). After 45 minutes, the tissue was removed from the enzyme solution and cells were disgregated in Ca^2+-free solution with a Pasteur pipette. The remaining tissue was digested for 3×15 minutes in a fresh calcium free solution containing 0.4 mg/ml collagenase. […] Only elongated cells with clear cross striations and without granulation were used for experiments.
Calcium sparks and calcium waves were detected in fluo-3 loaded cells using a laser-scanning confocal microscope (Leica TCS SP2 AOBS, Germany). […] Fluorescence emission was collected between 500 and 650 nm with the excitation at 488 nm attenuated to 1-5%. Calcium sparks and calcium waves were measured at resting conditions during 2×10.24 s, at a scan rate of 1 kHz. Calcium sparks were detected as an increase in the signal mass of a 3 μm section through the center of a calcium spark, without any detectable increase in an adjacent 3 μm section. An increase in the signal mass in two or more adjacent 3 μm sections were counted as calcium waves. The amplitude of each calcium spark and its half-life were determined from an exponential fit of the decaying phase of the calcium spark transient. The calcium spark frequency was determined for each cell and normalized to the scanned cell length.
Electrophysiological and confocal calcium imaging experiments were carried out without knowledge about the clinical data of the patients. The Ca^2+ sparks and Ca^2+ waves recorded in cells from the same patient were averaged. […]

[2] = test system: isolated human atrial myocytes; assay: Patch-clamp recording of spontaneous Na-Ca exchange current (INCX) associated with calcium waves, membrane potential clamped at -80 mV; format: cell-based; settings: for basal calcium wave frequency measured by patch clamp technique: cells from atrial fibrillation patients with elevated basal SR calcium release, n=7, both antagonists pooled (FIG. 3B right); for reversal of the specific effect of CGS 21680 on spontaneous SR calcium release: antagonist concentration not stated at this place
Protocol: as §1
The transient inward Na—Ca exchange current associated with calcium waves was recorded in the perforated patch configuration using a software controlled patch-clamp amplifier (EPC 10, HEKA, Germany). The pipette resistance was 1.5-4 MΩ. Experiments were carried out at room temperature and began when the access resistance was stable and had decreased to less than 5 times the pipette resistance. The extracellular solution contained (in mM): NaCl 127, tetraethyl ammonium (TEA) 5, HEPES 10, NaHCO3 4, NaH2PO4 0.33, glucose 10, pyruvic acid 5, CaCl2 2, MgCl2 1.8, (pH=7.4). The pipette solution contained (in mM): aspartic acid 109, CsCl 47, Mg2ATP 3, MgCl2 1, Na2phosphocreatine 5, Li2GTP 0.42, HEPES 10 and 250 μg/ml amphotericin B, (pH=7.2). The A2A receptor agonist […], the antagonists ZM 241385 and SCH 58261, and the protein kinase A inhibitor H-89 were all dissolved in DMSO and kept as 10 mM stock solutions. The caffeine releasable SR calcium content was measured by transiently exposing cells to 10 mM caffeine. The time integral of the resulting Na—Ca exchange current was converted to pmoles […] of calcium released from the SR assuming a stoichiometry of 3Na^+:1Ca^2+ for the Na—Ca exchanger.
Electrophysiological and confocal calcium imaging experiments were carried out without knowledge about the clinical data of the patients. The Ca^2+ sparks and Ca^2+ waves recorded in cells from the same patient were averaged. Unless otherwise stated, average values from each patient were used for statistical analysis and expressed as mean±S.E.M. Data sets were tested for normality. Student's t-test was used to assess significant differences when testing a specific effect. ANOVA was used for comparison of multiple effects and Student-Newman-Keuls post test was used to evaluate the significance of specific effects.

CCNC(=O)[C@H]1O[C@@H](n2cnc3c(N)nc(NCCc4ccc(CCC(=O)O)cc4)nc32)[C@H](O)[C@@H]1O [CGS 21680]
number of calcium waves ([1]; myocytes from patients with atrial fibrillation, preincubation with 200 nM): increased the number of calcium waves
number of spontaneous calcium waves measured as the Na-Ca exchange current (INCX) ([2]; 200 nM, -80 mV, atrial fibrillation patients (FIG. 2A, B, D)): reversibly increased the number of spontaneous calcium waves

Nc1nc(NCCc2ccc(O)cc2)nc2nc(-c3ccco3)nn12 [ZM 241385]
basal calcium wave frequency measured by confocal microscopy [1]: significantly reduced the calcium wave frequency
basal calcium wave frequency measured by patch clamp technique ([2]; 50 nM): significantly reduced the calcium wave frequency
reversal of the stimulatory effect of 200 nM CGS 21680 on spontaneous INCX ([2]; antagonist 1 μM, -80 mV (FIG. 2C)): able to revert the stimulatory effect
reversal of the specific effect of CGS 21680 on spontaneous SR calcium release [2]: reversed

Nc1nc2c(cnn2CCc2ccccc2)c2nc(-c3ccco3)nn12 [SCH 58261]
basal calcium wave frequency measured by confocal microscopy [1]: significantly reduced the calcium wave frequency
basal calcium wave frequency measured by patch clamp technique ([2]; 50 nM): significantly reduced the calcium wave frequency
spontaneous INCX frequency (basal) ([2]; 50 nM, samples of patients with atrial fibrillation, -80 mV (FIG. 3A)): reversible reduction
reversal of the specific effect of CGS 21680 on spontaneous SR calcium release [2]: reversed

O=S(=O)(NCCNC/C=C/c1ccc(Br)cc1)c1cccc2cnccc12 [H-89]
effect on the stimulatory effect of 200 nM CGS 21680 (wave frequency) ([2]; 10 μM H-89, myocytes from 5 patients with atrial fibrillation (FIG. 2E), p=0.002 CGS vs. CGS+H-89): abolished the stimulatory effect; also recorded: eliminated
spontaneous calcium release / calcium wave frequency relative to baseline before CGS 21680 ([2]; 10 μM H-89 with 200 nM CGS 21680, p=0.05 vs. control (FIG. 2E)): reduced spontaneous calcium release to a significantly lower level than the baseline; also recorded: reduces the calcium wave frequency below baseline level
